“And” between values parts separate entries of the source, which are not always exact repeats. Equal entries are not always repeated. Where two headings read alike, the source gives them in different places. Marks after values point to notes of the source that are not given here.
Experiment: Phase 1 SAD/MAD pharmacokinetics of oral ATI-450 in healthy subjects (incl. 80/120 mg BID extension)
Format: in vivo, human
Conditions: for Cmax: read-out: Cmax; for concentration at 2 day: day 2; for concentration at 3 day: day 3; for concentration at 4 day: day 4; for concentration at 5 day: day 5; for concentration at 6 day: day 6; for Vd/F: read-out: Vss/F
Protocol: Study Design. […] Single ascending dose (SAD) cohorts. […] Multiple ascending dose (MAD) cohorts. […] Blood Sampling and Bioanalysis. Two-milliliter blood samples were collected for PK analysis. […] The lower limit of quantification was 0.500 ng/mL. Pharmacokinetics. […] Bioanalysis Assay of ATI-450. Sample processing was performed by protein precipitation using a 50.0-μL sample volume. […] A triple quadrupole 6500 mass spectrometer equipped with a turbo-ion spray source was used for detection in positive ion mode. […] A linear calibration curve ranging from 0.500 to 500 ng/mL with a 1/x^2 weighting factor was used. The method was minimally required to have intra- and inter-day precision (coefficients of variation) for pooled plasma quality control samples of ≤15% except at the lower limit of quantitation, where ≤20% was acceptable. The calculated concentrations (both inter- and intra-day) were required to be within 15% of nominal at all concentrations except the lower limit of quantitation, where up to 20% deviation from nominal was acceptable. The precision and accuracy of the method exceeded these minimum requirements for assay validation.

[1] = both sexes, human, plasma, oral, 80 mg, 80 mg BID, read-out: Ctrough
[2] = both sexes, human, plasma, oral, 80 mg, 80 mg BID, day 7
[3] = both sexes, human, plasma, oral, 120 mg, 120 mg BID, day 1
[4] = both sexes, human, plasma, oral, 120 mg, 120 mg BID, read-out: Ctrough
[5] = both sexes, human, plasma, oral, 120 mg, 120 mg BID, day 7
[6] = both sexes, human, plasma, po, 10 mg, single oral dose 10 mg, fasted
[7] = both sexes, human, plasma, po, 30 mg, single oral dose 30 mg, fasted
[8] = both sexes, human, plasma, po, 50 mg, single oral dose 50 mg, fasted
[9] = both sexes, human, plasma, po, 100 mg, single oral dose 100 mg, fasted
[10] = both sexes, human, plasma, po, 100 mg, single oral dose 100 mg, fed (high-fat, high-calorie breakfast)
[11] = single oral dose 100 mg, fasted

## Cc1cnc(-c2ccnc(C(C)(C)O)n2)cc1-n1c(C)cc(OCc2ncc(F)cc2F)c(Cl)c1=O (single isomer, unassigned) [ATI-450, 3-chloro-4-((3,5-difluoropyridin-2-yl)methoxy)-2′-(2-(2-hydroxypropan-2-yl)pyrimidin-4-yl)-5′,6-dimethyl-2H-[1,4′-bipyridin]-2-one]
Both sexes, human, plasma, oral, 80 mg, 80 mg BID, day 1
  Cmax: 258 ± 83.8 ng/mL
Both sexes, human, plasma, oral, 80 mg, 80 mg BID, day 1, read-out: Tmax, median (min, max)
  Tmax: 2 h
[1]
  concentration at 2 day: 176 ± 67.5 ng/mL
  concentration at 3 day: 149 ± 54 ng/mL
  concentration at 4 day: 148 ± 59.9 ng/mL
  concentration at 5 day: 145 ± 78.3 ng/mL
  concentration at 6 day: 144 ± 64.9 ng/mL
[2]
  AUC: 2550 ± 730 ng·h/mL
  Cmax: 389 ng/mL
Both sexes, human, plasma, oral, 80 mg, 80 mg BID, day 7, read-out: AUC0-24, total daily exposure calculated as AUC0-12 × 2
  AUC(0-t): 5100 ng·h/mL
Both sexes, human, plasma, oral, 80 mg, 80 mg BID, day 7, read-out: AUC0-t
  AUC(0-t): 4030 ± 1150 ng·h/mL
Both sexes, human, plasma, oral, 80 mg, 80 mg BID, day 7, read-out: Cavg
  concentration at 7 day: 212 ± 60.8 ng/mL
Both sexes, human, plasma, oral, 80 mg, 80 mg BID, day 7, read-out: Cmin
  concentration at 7 day: 100 ± 39.8 ng/mL
Both sexes, human, plasma, oral, 80 mg, 80 mg BID, day 7, read-out: Tmax, median (min, max)
  Tmax: 2 h
Both sexes, human, plasma, oral, 80 mg, 80 mg BID, day 7, read-out: t1/2 (converted)
  half-life: 14.3 ± 5.3 h
Both sexes, human, plasma, oral, 120 mg BID, day 7, read-out: Ctrough
  concentration at 7 day: 156 ng/mL
[3]
  AUC: 2320 ± 383 ng·h/mL
  Cmax: 379 ± 60.6 ng/mL
Both sexes, human, plasma, oral, 120 mg, 120 mg BID, day 1, read-out: AUC0-t
  AUC(0-t): 2310 ± 380 ng·h/mL
Both sexes, human, plasma, oral, 120 mg, 120 mg BID, day 1, read-out: Tmax, median (min, max)
  Tmax: 3 h
[4]
  concentration at 2 day: 152 ± 93.3 ng/mL
  concentration at 3 day: 144 ± 98.8 ng/mL
  concentration at 4 day: 126 ± 84.4 ng/mL
  concentration at 5 day: 145 ± 67.5 ng/mL
  concentration at 6 day: 161 ± 87.5 ng/mL
[5]
  AUC: 2580 ± 1030 ng·h/mL
  Cmax: 416 ng/mL
Both sexes, human, plasma, oral, 120 mg, 120 mg BID, day 7, read-out: AUC0-24, total daily exposure calculated as AUC0-12 × 2
  AUC(0-t): 5160 ng·h/mL
Both sexes, human, plasma, oral, 120 mg, 120 mg BID, day 7, read-out: AUC0-t
  AUC(0-t): 4170 ± 2090 ng·h/mL
Both sexes, human, plasma, oral, 120 mg, 120 mg BID, day 7, read-out: Cavg
  concentration at 7 day: 215 ± 85.9 ng/mL
Both sexes, human, plasma, oral, 120 mg, 120 mg BID, day 7, read-out: Cmin
  concentration at 7 day: 96.1 ± 64.1 ng/mL
Both sexes, human, plasma, oral, 120 mg, 120 mg BID, day 7, read-out: Tmax, median (min, max)
  Tmax: 2 h
Both sexes, human, plasma, oral, 120 mg, 120 mg BID, day 7, read-out: t1/2 (converted)
  half-life: 8.7 ± 2.4 h
Both sexes, human, plasma, oral, MAD cohorts 10-50 mg BID, day 7, read-out: terminal half-life (mean t1/2), range over cohorts
  half-life: 9 to 12 h
Both sexes, human, plasma, oral, SAD cohorts, fasted, read-out: mean t1/2, range across dose cohorts
  half-life: 9 to 11 h
Both sexes, human, plasma, oral, SAD cohorts, fasted, read-out: median Tmax, range across dose cohorts
  Tmax: 2 to 4 h
Both sexes, human, plasma, oral, 50 mg BID, day 7
  Vd/F: 586 ± 163 L
Both sexes, human, plasma, oral, 80 mg BID, day 7
  Vd/F: 690 ± 294 L
Both sexes, human, plasma, oral, 120 mg BID, day 7
  Vd/F: 621 ± 183 L
[6]
  AUC(0-inf): 285 ng·h/mL
  Cmax: 39.4 ng/mL
Both sexes, human, plasma, po, 10 mg, single oral dose 10 mg, fasted, read-out: Tmax, median (min, max)
  Tmax: 2 h
Both sexes, human, plasma, po, 10 mg, single oral dose 10 mg, fasted, read-out: t1/2 (converted)
  half-life: 8.5 h
[7]
  AUC(0-inf): 1100 ng·h/mL
  Cmax: 122 ng/mL
Both sexes, human, plasma, po, 30 mg, single oral dose 30 mg, fasted, read-out: Tmax, median (min, max)
  Tmax: 4 h
Both sexes, human, plasma, po, 30 mg, single oral dose 30 mg, fasted, read-out: t1/2 (converted)
  half-life: 10.7 h
[8]
  AUC(0-inf): 1460 ng·h/mL
  Cmax: 161 ng/mL
Both sexes, human, plasma, po, 50 mg, single oral dose 50 mg, fasted, read-out: Tmax, median (min, max)
  Tmax: 3 h
Both sexes, human, plasma, po, 50 mg, single oral dose 50 mg, fasted, read-out: t1/2 (converted)
  half-life: 9.1 h
[9]
  AUC(0-inf): 3650 ng·h/mL
  Cmax: 426 ng/mL
Both sexes, human, plasma, po, 100 mg, single oral dose 100 mg, fasted, read-out: Tmax, median (min, max)
  Tmax: 2 h
Both sexes, human, plasma, po, 100 mg, single oral dose 100 mg, fasted, read-out: t1/2 (converted)
  half-life: 11.2 h
[10]
  AUC(0-inf): 4100 ng·h/mL
  Cmax: 371 ng/mL
Both sexes, human, plasma, po, 100 mg, single oral dose 100 mg, fed (high-fat, high-calorie breakfast), read-out: Tmax, median (min, max)
  Tmax: 6 h
Both sexes, human, plasma, po, 100 mg, single oral dose 100 mg, fed (high-fat, high-calorie breakfast), read-out: t1/2 (converted)
  half-life: 6.3 h
Single oral dose 10 mg, fasted
  AUC(0-t): 276.3 ± 77.8 ng·h/mL
  CL/F: 37.0 ± 8.8 L/h
  Tmax, median (min, max): 2.0 (2.0-4.0) h
  Vz/F: 430.2 ± 124.0 L
  t1/2: 8.5 ± 3.2 h
Single oral dose 30 mg, fasted
  AUC(0-t): 1074.0 ± 243.5^a h*ng/mL
  CL/F: 28.4 ± 7.1^a L/h
  Tmax, median (min, max): 4.0 (2.0-4.1) h
  Vz/F: 451.4 ± 201.5^a L
Single oral dose 50 mg, fasted
  AUC(0-t): 1430.0 ± 254.0 ng·h/mL
  CL/F: 35.1 ± 6.3 L/h
  Tmax, median (min, max): 3.0 (2.0-4.0) h
  Vz/F: 445.0 ± 94.7 L
  t1/2: 9.1 ± 2.4 h
[11]
  AUC(0-t): 3489.8 ± 475.7 ng·h/mL
  CL/F: 27.9 ± 4.3 L/h
  Tmax, median (min, max): 2.0 (2.0, 4.0) h and 2.0 (2.0-4.0) h
  Vz/F: 439.8 ± 189.7 L
  t1/2: 11.2 ± 5.8 h
Single oral dose 100 mg, fed (high-fat, high-calorie breakfast)
  Tmax, median (min, max): 6.0 (4.0, 12.0) h
twice-daily administration, all dose levels 10-50 mg
  steady state reached by day: ≤ 2 days

Source: patent publication US11844801B2, “Oral compositions of MK2 pathway inhibitor for treatment of immune conditions” (priority 2020, dated 2023)
